According to patent US20050033050A1, “Phthalazinones and the use thereof in order to combat undesirable microorganisms” (priority 2001, published 2005):
Like-named read-outs stand apart in the source and are kept apart here.

Experiments:
[1] = logP by HPLC (EEC directive 79/831 Annex V.A8, gradient method); type: physicochemical; details: for logP*: compounds of formula (IV), Table 2; for log P*: Table 1
[2] = system: Erysiphe graminis fsp. tritici; experiment: Erysiphe test (wheat)/protective; type: in vivo; details: protective, application rate 500 g/ha, evaluation 7 days after inoculation, 100% = no infection
Experimental: (§1) To produce a suitable preparation of active compound, I part by weight of active compound is mixed with the stated amounts of solvent and emulsifier, and the concentrate is diluted with water to the desired concentration.
To test for protective activity, young plants are sprayed with the preparation of active compound at the stated application rate.
After the spray coating has dried on, the plants are dusted with spores of Erysiphe graminis fsp. tritici.
(§2) The plants are placed in a greenhouse at a temperature of about 20° C. and a relative atmospheric humidity of about 80% to promote the development of mildew pustules.
(§3) Evaluation is carried out 7 days after the inoculation. 0% means an efficacy which corresponds to that of the control, whereas an efficacy of 100% means that no infection is observed.

[3] = system: Erysiphe graminis f.sp. hordei; experiment: Erysiphe test (cucumber)/protective; type: in vivo; details: protective, application rate 500 g/ha, evaluation 7 days after inoculation; 100% = no infection
Experimental: as §1, with “1” for “I”, “concentration. To test for protective activity, young plants are sprayed with the preparation of active” for “concentration.”
compound at the stated application rate.
After the spray coating has dried on, the plants are dusted with spores of Erysiphe graminis f.sp. hordei.
as §2, §3

[4] = gradient method, acetonitrile/0.1% aqueous phosphoric acid
[5] = gradient method, acetonitrile/0.1% aqueous phosphoric acid, compounds of formula (I), Table 1, read-out: log P*
[6] = preparation example, read-out: HPLC: logP
[7] = gradient method, acetonitrile/0.1% aqueous phosphoric acid, compounds of formula (I)

Row | Structure (SMILES) | logP* [1, 4] | log P* [1, 7] | also measured
1 | CCCOc1n[nH]c(=O)c2ccc(Br)cc12 [(IV-3)] | 2.71 |  | 
2 | CCC(C)Oc1n[nH]c(=O)c2cc(Cl)c(Cl)cc12 (stereo not shown) [(IV-5)] | 3.62 |  | 
3 | CC(C)COc1n[nH]c(=O)c2cc(Cl)c(Cl)cc12 [(IV-6)] | 3.64 |  | 
4 | CCCOc1nn(CCC)c(=O)c2cc(Br)ccc12 [Example 1, 7-bromo-4-propoxy-2-propyl-1(2H)-phthalazinone] |  |  | chromatographic logP [1, 5]: 4.76; chromatographic logP [1, 6]: 4.76
5 | CCCOc1nn(CCC(C)C)c(=O)c2ccc(Br)cc12 [Example 2, 6-bromo-2-isopentyl-4-propoxy-1 (2H)-phthalazinone] |  |  | chromatographic logP [1, 5]: 5.91; chromatographic logP [1, 6]: 5.91
6 | CCCOc1nn(CCC)c(=O)c2cc(Cl)c(Cl)cc12 [Example 10] |  | 5.51 | efficacy [2]: 100%
7 | CCCCOc1nn(CCCC)c(=O)c2cc(Cl)c(Cl)cc12 [Example 11] |  | 6.71 | efficacy [2]: 100%; efficacy [3]: 100%
8 | CC(C)COc1nn(CC(C)C)c(=O)c2cc(Cl)c(Cl)cc12 [Example 13] |  | 6.46 | 
9 | CCCOc1cc2c(OCCC)nn(CCC)c(=O)c2cc1F [Example 15] |  | 4.82 | 
10 | CCCOc1cc2c(=O)n(CCC)nc(OCCC)c2cc1F [Example 16] |  | 5.26 | 
11 | CCC(C)Oc1n[nH]c(=O)c2cc(Br)ccc12 (stereo not shown) [Example (IV-1), 7-bromo-4-sec-butoxy-1 (2H)-phthalazinone] |  |  | chromatographic logP [1, 6]: 3.01

The next lines start with results.

Row | logP* [1, 4] | log P* [1, 7] | Structure (SMILES) | also measured
12 | 2.66 |  | CCCOc1n[nH]c(=O)c2cc(Br)ccc12 [(IV-2)] | 
13 | 3.12 |  | CCC(C)Oc1n[nH]c(=O)c2ccc(Br)cc12 (stereo not shown) [(IV-4)] | 
14 |  | 4.8 | CCCOc1nn(CCC)c(=O)c2ccc(Br)cc12 [Example 4] | efficacy [2]: 100%
15 |  | 5.52 | CCC(C)Oc1nn(C(C)CC)c(=O)c2cc(Br)ccc12 (stereo not shown) [Example 9] | 
16 |  | 3.62 | CCC(C)Oc1nn(C(C)CC)c(=O)c2cc(Cl)c(Cl)cc12 (stereo not shown) [Example 12] | 
